From publication PMC7930822, “Phase I Trial to Evaluate the Tolerance, Pharmacokinetics and Efficacy of the Broad-Spectrum ErbB Family Inhibitor Larotinib Mesylate in Patients With Advanced Solid Tumors” (Frontiers in Pharmacology, 2021)
Structures can show the parent of a compound that is named as a salt.

Assays:
[1] = biological target: interleukin-1 receptor-associated kinase 1 (IRAK1); set-up: method as in data not published; settings: ref data not published; cited from earlier work
[2] = tested on: patients with advanced solid tumors; assay: phase I safety and tolerance (NCI CTCAE version 4.03, DLTs); assay type: in vivo, human
Description: This was a phase I, single-center, open-label, dose-escalation study conducted at First Hospital of Jilin University, China (registration no.: ChiCTR-OPC-15007153 registered at http://www.chictr.org.cn). Larotinib mesylate hard capsules were produced and supplied by Sunshine Lake Pharma Co., Ltd (Guangdong Province, China) in different unit doses of […] under GMP condition. Seven dose levels were designed in the study: 50, 100, 150, 220, 300, 350, and 400 mg with administration stages labeled cycle 0, cycle 1, and subsequent treatment cycles. Patients received an oral single dose of larotinib mesylate after fasting during a 6-days cycle 0 to evaluate the tolerance and pharmacokinetic characteristics. After cycle 0, larotinib mesylate was continuously administered once daily for 28 days in cycle 1, and the tolerance and pharmacokinetic characteristics of multiple doses were evaluated (Figure 2). The patients who […] disease control (complete response [CR], partial response [PR], or stable disease [SD]) at the end of cycle one were permitted to participate in the subsequent 28-days treatment cycles until progressive disease (PD) or intolerance was observed.
We enrolled three to six patients for each dose level, with the goal of having at least three patients complete the cycle 0 and cycle 1 treatments. We made an enrollment regulation for the extra patients (>3) according to the study stage of the last enrolled patient in the present dose level: If the patient had finished cycle 1 day 22, extra screened patients would be enrolled to the next dose level; if not, the current dose level would be selected. If 1/3 of patients experienced a DLT in cycle 0 or cycle 1, expansion to six patients was required for the current dose level.
DLTs were observed according to the NCI CTCAE version 4.03 and defined as the emergence of any of the following drug-related AEs: hematological toxicity including Grade ≥3 neutropenia or thrombocytopenia and other Grade ≥4 hematological toxicity; nonhematological toxicities including Grade ≥2 atrioventricular block or renal injury; Grade ≥2 nausea, emesis, or diarrhea for ≥7 days despite optimal treatment; Grade ≥3 nausea, emesis, diarrhea, or rash despite supportive care; and alanine aminotransferase (ALT) or aspartate aminotransferase (AST) elevation by more than 5 times the upper limits of normal for ≥7 days and other Grade ≥3 nonhematological toxicities.
Safety was assessed according to the NCI CTCAE version 4.03 including AEs, vital signs, and results from 12-lead […], cardiac ultrasound, physical examination, ophthalmic testing, and clinical laboratory tests. Dosage adjustments could be applied from cycle 2 according to the severity of the toxicities. Drug administration would be suspended when drug-related AEs were graded at 3 or 4, and the original dose or reduction dose would be given if the AEs returned to baseline or Grade 1 (nonhematological toxicities)/grade 2 (hematological toxicities) within 14 days.

[3] = tested on: patients with advanced solid tumors; assay: tumor evaluation by RECIST version 1.1; assay type: in vivo, human; settings: for Disease control, n (%): CR, PR and SD; for Objective response, n (%): complete plus partial response
Description: Tumor evaluation was performed at screening, the end of cycle 1, and every two cycles of subsequent treatment according to RECIST version 1.1. The disease control rate (DCR) (including CR, PR and SD), objective remission rate (ORR) (including CR and PR), and progression-free survival (PFS) were also evaluated.
Blood samples for EGFR mutation site analyses were collected in screening, cycle 1 day 29, cycle 3 days 29 and every 8 weeks for the subsequent follow-up. Second-generation sequencing method was used to detect the amplification and mutation of the related tumor genes.

[4] = tested on: CYP3A4; set-up: method as in data not published; settings: in vitro studies; ref data not published; cited from earlier work
[5] = tested on: Sprague–Dawley rats; set-up: method as in data not published; settings: ref data not published, cited from earlier work

## COc1cc2ncnc(Nc3ccc(F)c(Cl)c3)c2cc1OCCCN1C[C@@H]2OCCO[C@@H]2C1 [larotinib mesylate]
[1]
  IC50: 167 nM
[2]; 50–400 mg/d oral
  MTD in patients: no MTD established
[2]; human, in vivo
  Grade 3 drug-related decreased lymphocytes: 12%
  Grade 3 drug-related diarrhea: 4%
  Grade 3 drug-related nausea: 4%
  drug-related acne-like rash, incidence: 68.0%
  drug-related anemia, incidence: 48.0%
  drug-related decreased lymphocyte percentage, incidence: 40.0%
  drug-related diarrhea, incidence: 48.0%
  drug-related hand-foot skin reaction, incidence: 44.0%
  drug-related hypoalbuminemia, incidence: 32.0%
  drug-related nausea, incidence: 36.0%
  drug-related paronychia, incidence: 48.0%
  drug-related stomatitis, incidence: 44.0%
  drug-related weight loss, incidence: 32.0%
  patients with Grade 3 drug-related AEs: 20%
  patients with at least one drug-related AE: 96%
[3]; 50 mg (n = 3)
  Complete response, n (%): 0 (0)
  Partial response, n (%): 0 (0)
  Progressive disease, n (%): 1 (33.3)
  Stable disease, n (%): 2 (66.7)
  Disease control, n (%): 2 (66.7)
  Objective response, n (%): 0 (0)
[3]; 100 mg (n = 3)
  Complete response, n (%): 0 (0)
  Partial response, n (%): 0 (0)
  Progressive disease, n (%): 1 (33.3)
  Stable disease, n (%): 2 (66.7)
  Disease control, n (%): 2 (66.7)
  Objective response, n (%): 0 (0)
[3]; 150 mg (n = 3)
  Complete response, n (%): 0 (0)
  Partial response, n (%): 0 (0)
  Progressive disease, n (%): 1 (33.3)
  Stable disease, n (%): 2 (66.7)
  Disease control, n (%): 2 (66.7)
  Objective response, n (%): 0 (0)
[3]; 220 mg (n = 3)
  Complete response, n (%): 0 (0)
  Partial response, n (%): 1 (33.3)
  Progressive disease, n (%): 0 (0)
  Stable disease, n (%): 2 (66.7)
  Disease control, n (%): 3 (100)
  Objective response, n (%): 1 (33.3)
[3]; 300 mg (n = 6)
  Complete response, n (%): 0 (0)
  Partial response, n (%): 0 (0)
  Progressive disease, n (%): 4 (66.7)
  Stable disease, n (%): 2 (33.3)
  Disease control, n (%): 2 (33.3)
  Objective response, n (%): 0 (0)
[3]; 350 mg (n = 3)
  Complete response, n (%): 0 (0)
  Partial response, n (%): 1 (33.3)
  Progressive disease, n (%): 0 (0)
  Stable disease, n (%): 2 (66.7)
  Disease control, n (%): 3 (100)
  Objective response, n (%): 1 (33.3)
[3]; 400 mg (n = 3)
  Complete response, n (%): 0 (0)
  Partial response, n (%): 0 (0)
  Progressive disease, n (%): 0 (0)
  Stable disease, n (%): 3 (100)
  Disease control, n (%): 3 (100)
  Objective response, n (%): 0 (0)
[3]; NSCLC patient, 350-mg group, no EGFR-sensitive mutations
  duration of maintained PR: 19 cycles
[3]; Total (n = 24)
  Complete response, n (%): 0 (0)
  Partial response, n (%): 2 (8.3)
  Progressive disease, n (%): 7 (29.2)
  Stable disease, n (%): 15 (62.5)
  Disease control, n (%): 17 (70.8)
  Objective response, n (%): 2 (8.3)
[3]; after cycle one
  cases of PR among five patients with EGFR mutations at baseline: 1
  cases of SD among five patients with EGFR mutations at baseline: 4
[3]; all dose levels
  stable disease as best overall response, patients: 15
[3]; all dose levels, 24 evaluable
  overall disease control rate (DCR): 70.8%
[4]
  fraction metabolized by CYP3A4: around 85%
[5]; daily administration
  no observed adverse effect level (NOAEL): 10 mg/kg
[5]
  maximal tolerable dose (MTD): 20 mg/kg
